Assay results taken from patent US9526720B2, “Modulators of hepatic lipoprotein metabolism” (The Broad Institute, Inc., priority 2012, dated 2016).

What was measured:
ApoB = assay: ELISA of secreted ApoB in HepG2 cells; assay type: cell-based, human; parameters: key to ELISA 24 Hr (EC50 uM) ApoB decrease: A: EC50 between 0.0000001 μM≦0.5 μM; B: EC50 between 0.51 μM≦1.0 μM; EC50 between 1.1 μM≦2.0 μM; D: EC50 between 2.1 μM≦5.0 μM; EC50 between 5.1 μM≦10 μM; F: EC50>10 μM; NC: No change; conditions: for EC50: Homo sapiens, HepG2, 24 h, read-out: ELISA 24 Hr (EC50 uM) ApoB decrease; for ELISA ApoB: HepG2 cells
Protocol: (§1) Additional secondary assays were performed in HepG2 cells to further characterize the cellular response to treatment with select confirmed TRIB1 inducer hits. The results of the ELISA, CTG, and qPCR secondary assays are summarized in Table B. For all secondary assays, the experiments were performed using powders of freshly purified compounds.
(§2) To further characterize the relationship of TRIB1 induction and PCSK9 reduction, ELISAs were performed to measure the levels of secreted ApoB, PCSK9, and LDLR. […] As predicted treatment with TRIB1 inducer hits caused a decrease in ApoB levels detected by ELISA. In parallel effort, 3200 BIOA and NATP compounds were screened for PCSK9 expression inhibitors. Hits were defined as inducing greater than 3-fold downregulation of PCSK9, and 3.8% of the screened compounds were confirmed as hits. […] In further experiments, a strong correlation was confirmed between TRIB1 induction and PCSK9 repression in DOS Collection hits. ELISA analysis confirmed that treatment with TRIB1 inducers reduced the PCSK9 protein levels. LDLR protein levels were also analyzed by ELISA to determine whether compounds that modulate both TRIB1 and PCSK9 had any effect on LDLR protein levels.

LDLR [1] = assay: ELISA of LDLR protein in HepG2 cells; assay type: cell-based, human; parameters: key to ELISA LDLR: A: Increase <2-fold; B: Increase >2-fold; X: Decrease <2-fold; Y: Decrease >2-fold; No significant change; conditions: for EC50: Homo sapiens, HepG2, 24 h, read-out: ELISA 24 Hr (EC50 uM) LDLR increase; for ELISA LDLR: HepG2 cells
Protocol: as §1, §2

PCSK9 [2] = assay: ELISA of secreted PCSK9 protein in HepG2 cells; assay type: cell-based, human; conditions: for EC50: Homo sapiens, HepG2, 24 h, read-out: ELISA 24 Hr (EC50 uM) PCSK9 decrease; for ELISA PCSK9: HepG2 cells
Protocol: as §1, §2

PCSK9 [3] = assay: qPCR PCSK9 expression in HepG2 cells; assay type: cell-based, human; conditions: Homo sapiens; for EC50: HepG2, 24 h, read-out: qPCR 24 Hr (EC50 uM) PCSK9 down-regulation; for fold induction at 10 µM: 20 h, HepG2 cells
Protocol: (§3) In the primary screen, HepG2 cells were plated in 384-well plates at 2000 cells per well and incubated for 20 hours with each compound in duplicate at 10 microM concentration. Then RNA was isolated, reverse-transcribed to cDNA, and stored at −80° C. Expression levels of TRIB1 and other target genes, such as SORT1 and PCSK9, were determined by quantitative PCR. Relative gene expression level was normalized to expression of the housekeeping gene, GAPDH. A “hit” was defined as those compounds that caused a greater than 2-fold increase in relative target gene expression when normalized to GAPDH expression, compared to DMSO-treated control. Using these criteria, 130 hits were identified for TRIB1 (0.8% hit rate).
(§4) Further analysis of the expression levels of various proteins in the cholesterol and triglyceride biosynthetic pathways in response to TRIB1 inducer treatment was performed. In particular, transcript levels of additional lipoprotein metabolism pathway proteins SCAP, SREBF1, SREBF2, HMGCR, HMGCS, SCD1, FASN and MTTP were assessed by qPCR, along with TRIB1, LDLR, and PCSK9. The gene expression profile for the same subset of genes was also assessed after treatment with the statin atorvastatin (Lipitor), commonly used in therapy for hypercholesterolemia and other cardiovascular diseases.
(§5) The kinetics of the modulation of TRIB1, LDLR, PCSK9 and MTTP gene expression after treatment by select TRIB1 inducer compounds was monitored by qPCR analysis (FIG. 4). RNA was extracted from cells at various timepoints over 28 hours of treatment (0, 2, 4, 6, 8, 24, 28 hours). Specifically, compounds 12a and 14a induced transcriptional responses over time similar to those produced by berberine, a plant alkaloid used in Chinese medicine. […] Both compound 12a and compound 14a induce TRIB1 and LDLR and repress PCSK9 and MTTP expression with similar kinetics and similar fold change as berberine Importantly, both compounds induce these gene expression changes at much lower concentrations than berberine. […] This increased potency indicates the potential therapeutic efficacy of such compounds for treatment of cardiovascular diseases, particularly hypercholesterolemia and related conditions.

LDLR [4] = assay: qPCR LDLR expression in HepG2 cells; assay type: cell-based, human; conditions: for EC50: Homo sapiens, HepG2, 6 h, read-out: qPCR 6Hr (EC50 uM) LDLR up-regulation; for qPCR LDLR: HepG2 cells
Protocol: as §3, §4, §5

TRIB1 [5] = assay: qPCR TRIB1 expression in HepG2 cells; assay type: cell-based; conditions: Homo sapiens, HepG2, 6 h; read-out: qPCR 6Hr (EC50 uM) TRIB1 up-regulation
HepG2 cells = assay: Cell Titer Glo (CTG) cell viability assay; assay type: cell-based, human; parameters: key: A: Increase <2-fold; B: Increase >2-fold; X: Decrease <2-fold; Y: Decrease >2-fold; No significant change; conditions: cell viability (ATP)
Protocol: Cell viability was determined using a Cell Titer Glo (CTG) assay ([…]) after treatment with TRIB1 inducer compounds. In this assay, the number of viable cells in culture is based on quantitation of ATP, which indicates metabolically active cells. Addition of the reagent results in cell lysis and generation of a luminescent signal proportional to the amount of ATP present, which is directly proportional to the number of viable, metabolically active cells present in culture. Most TRIB1 inducer compounds had no significant effect on cell viability.

TRIB1 [6] = assay: qPCR TRIB1 expression in HepG2 cells; assay type: cell-based, human; conditions: Homo sapiens, 20 h; HepG2 cells
Protocol: as §3, §4, §5

SCAP = assay: qPCR SCAP transcript level in HepG2 cells; assay type: cell-based, human; parameters: key: A: Increase <2-fold; B: Increase >2-fold; X: Decrease <2-fold; Y: Decrease >2-fold; No significant change
Protocol: as §3, §4

SREBF1 = assay: qPCR SREBF1 transcript level in HepG2 cells; assay type: cell-based, human; parameters: key: A: Increase <2-fold; B: Increase >2-fold; X: Decrease <2-fold; Y: Decrease >2-fold; No significant change
Protocol: as §3, §4

SREBF2 = assay: qPCR SREBF2 transcript level in HepG2 cells; assay type: cell-based, human; parameters: key: A: Increase <2-fold; B: Increase >2-fold; X: Decrease <2-fold; Y: Decrease >2-fold; No significant change
Protocol: as §3, §4

HMGCR = assay: qPCR HMGCR transcript level in HepG2 cells; assay type: cell-based, human; parameters: key: A: Increase <2-fold; B: Increase >2-fold; X: Decrease <2-fold; Y: Decrease >2-fold; No significant change
Protocol: as §3, §4

HMGCS = assay: qPCR HMGCS transcript level in HepG2 cells; assay type: cell-based; conditions: Homo sapiens, 20 h
Protocol: as §3, §4

FASN = assay: qPCR FASN transcript level in HepG2 cells; assay type: cell-based; conditions: Homo sapiens, 20 h
Protocol: as §3, §4

SCD1 = assay: qPCR SCD1 transcript level in HepG2 cells; assay type: cell-based; conditions: Homo sapiens, 20 h
Protocol: as §3, §4

EC50 (LDLR [1]) [µM] | EC50 (PCSK9 [2]) [µM] | EC50 (PCSK9 [3]) [µM] | EC50 (LDLR [4]) [µM] | EC50 (TRIB1 [5]) [µM] | Structure (SMILES) | ELISA ApoB (ApoB) | ELISA LDLR (LDLR [1]) | ELISA PCSK9 (PCSK9 [2]) | CTG (HepG2 cells) | fold induction at 10 µM (TRIB1 [6]) | qPCR SCAP (SCAP) | qPCR SREBF1 (SREBF1) | qPCR SREBF2 (SREBF2) | fold induction at 10 µM (PCSK9 [3]) | qPCR LDLR (LDLR [4]) | qPCR HMGCR (HMGCR) | fold induction at 10 µM (HMGCS) | fold induction at 10 µM (FASN) | fold induction at 10 µM (SCD1) | other results
2.1 to 5 | 1.1 to 2 | 1.1 to 2 | 1.1 to 2 | 2.1 to 5 | CN(C)C(=O)c1ccc(-c2ccc([C@H]3[C@@H](C#N)N(C(=O)C4CCCC4)[C@H]3CO)cc2)cc1 [Compound 19a] | – | – | – | – | – | – | – | – | – | – | – | – | – | – | EC50 (ApoB): 2.1 to 5 µM
– | – | – | – | – | CN1C(=O)c2cc(NC(=O)Cc3cccs3)ccc2OC[C@@H]2O[C@H](CC(=O)NCc3ccc(-c4ccccc4)cc3)CC[C@@H]21 [Compound 4a] | Y (Decrease >2-fold) | A (Increase <2-fold) | X (Decrease <2-fold) | N | > 2 | X (Decrease <2-fold) | X (Decrease <2-fold) | X (Decrease <2-fold) | > 2 | A (Increase <2-fold) | X (Decrease <2-fold) | > 2 | > 2 | < 2 | –
1.1 to 2 | 1.1 to 2 | 0.51 to 1 | 2.1 to 5 | 2.1 to 5 | N#C[C@H]1[C@H](c2ccc(-c3cccc(F)c3)cc2)[C@@H](CO)N1C(=O)NC1CCCC1 [Compound 20a] | – | – | – | – | – | – | – | – | – | – | – | – | – | – | EC50 (ApoB): > 10 µM
0.51 to 1 | 1.1 to 2 | 1.1 to 2 | 2.1 to 5 | 2.1 to 5 | CCCNC(=O)N1[C@H](C#N)[C@H](c2ccc(-c3cccnc3)cc2)[C@@H]1CO [Compound 23a] | – | – | – | – | – | – | – | – | – | – | – | – | – | – | ELISA 24 Hr (EC50 uM) ApoB decrease (ApoB; 24 Hr): NC
– | – | – | – | – | O=C(C[C@@H]1CC[C@@H]2[C@H](COC[C@@H](O)CN2CCC(F)(F)F)O1)NCc1ccc(Oc2ccccc2)cc1 [Compound 8a] | Y (Decrease >2-fold) | B (Increase >2-fold) | X (Decrease <2-fold) | N | > 2 | N | N | N | > 2 | B (Increase >2-fold) | Y (Decrease >2-fold) | > 2 | < 2 | < 2 | –
– | – | – | – | – | O=C(C[C@@H]1CC[C@H]2[C@@H](COC[C@H](O)CN2Cc2ccc(Oc3ccccc3)cc2)O1)N1CCc2ccccc2C1 [Compound 6a] | Y (Decrease >2-fold) | A (Increase <2-fold) | Y (Decrease >2-fold) | N | > 2 | N | N | N | > 2 | A (Increase <2-fold) | N | > 2 | > 2 | > 2 | –
– | – | – | – | – | O=C(C[C@@H]1CC[C@@H]2[C@H](COC[C@H](O)CN2CCC(F)(F)F)O1)NCc1ccc(Oc2ccccc2)cc1 [Compound 10a] | Y (Decrease >2-fold) | N | X (Decrease <2-fold) | N | > 2 | N | N | N | > 2 | B (Increase >2-fold) | Y (Decrease >2-fold) | > 2 | < 2 | > 2 | –
